Columns and labels:
[1] = Growth inhibition of human TK10 cells at 10 uM after 48 hrs by SRB assay relative to control; type: functional; settings: TK-10, 48 h, read-out: GI
[2] = system: NCI-H226; experiment: Growth inhibition of human NCI-H226 cells at 10 uM after 48 hrs by SRB assay relative to control; type: functional; settings: NCI-H226, 48 h, read-out: GI
[3] = Growth inhibition of human UACC62 cells at 10 uM after 48 hrs by SRB assay relative to control; type: functional; settings: UACC-62, 48 h, read-out: GI
[4] = Growth inhibition of human UO31 cells at 10 uM after 48 hrs by SRB assay relative to control; type: functional; settings: UO-31, 48 h, read-out: GI
[5] = system: MDA-MB-231; experiment: Growth inhibition of human MDA-MB-231 cells at 10 uM after 48 hrs by SRB assay relative to control; type: functional; settings: MDA-MB-231, 48 h, read-out: GI
[6] = system: KM12; experiment: Growth inhibition of human KM12 cells at 10 uM after 48 hrs by SRB assay relative to control; type: functional; settings: KM12, 48 h, read-out: GI
[7] = system: NCI-H322M; experiment: Growth inhibition of human NCI-H322M cells at 10 uM after 48 hrs by SRB assay relative to control; type: functional; settings: read-out: GI
[8] = Growth inhibition of human RPMI8226 cells at 10 uM after 48 hrs by SRB assay relative to control; type: functional; settings: RPMI-8226, 48 h, read-out: GI
[9] = system: CCRF-CEM; experiment: Growth inhibition of human CCRF-CEM cells at 10 uM after 48 hrs by SRB assay relative to control; type: functional; settings: read-out: GI
[10] = system: SK-MEL-28; experiment: Growth inhibition of human SK-MEL-28 cells at 10 uM after 48 hrs by SRB assay relative to control; type: functional; settings: SK-MEL-28, 48 h, read-out: GI
[11] = Growth inhibition of human SKOV3 cells at 10 uM after 48 hrs by SRB assay relative to control; type: functional; settings: SK-OV-3, 48 h, read-out: GI
[12] = Growth inhibition of human HCT15 cells at 10 uM after 48 hrs by SRB assay relative to control; type: functional; settings: HCT-15, 48 h, read-out: GI
[13] = Growth inhibition of human Hs 578T cells at 10 uM after 48 hrs by SRB assay relative to control; type: functional; settings: read-out: GI
[14] = Growth inhibition of human UACC257 cells at 10 uM after 48 hrs by SRB assay relative to control; type: functional; settings: UACC-257, 48 h, read-out: GI
[15] = Growth inhibition of human HL-60(TB) cells at 10 uM after 48 hrs by SRB assay relative to control; type: functional; settings: HL-60, 48 h, read-out: GI
[16] = system: MCF7; experiment: Growth inhibition of human MCF7 cells at 10 uM after 48 hrs by SRB assay relative to control; type: functional; settings: MCF7, 48 h, read-out: GI
[17] = Growth inhibition of human OVCAR8 cells at 10 uM after 48 hrs by SRB assay relative to control; type: functional; settings: OVCAR-8, 48 h, read-out: GI
[18] = Growth inhibition of human MOLT4 cells at 10 uM after 48 hrs by SRB assay relative to control; type: functional; settings: MOLT-4, 48 h, read-out: GI
[19] = Growth inhibition of human PC3 cells at 10 uM after 48 hrs by SRB assay relative to control; type: functional; settings: PC-3, 48 h, read-out: GI
[20] = organism: Ovis aries; experiment: Inhibition of sheep brain tubulin polymerization at 100 uM by DAPI staining-based fluorimetric method
[21] = Growth inhibition of human SNB19 cells at 10 uM after 48 hrs by SRB assay relative to control; type: functional; settings: SNB-19, 48 h, read-out: GI
[22] = system: NCI-H23; experiment: Growth inhibition of human NCI-H23 cells at 10 uM after 48 hrs by SRB assay relative to control; type: functional; settings: NCI-H23, 48 h, read-out: GI
[23] = Growth inhibition of human SF268 cells at 10 uM after 48 hrs by SRB assay relative to control; type: functional; settings: SF-268, 48 h, read-out: GI
[24] = Growth inhibition of human COLO205 cells at 10 uM after 48 hrs by SRB assay relative to control; type: functional; settings: COLO 205, 48 h, read-out: GI
[25] = Growth inhibition of human HCT116 cells at 10 uM after 48 hrs by SRB assay relative to control; type: functional; settings: HCT-116, 48 h, read-out: GI
[26] = system: EKVX; experiment: Growth inhibition of human EKVX cells at 10 uM after 48 hrs by SRB assay relative to control; type: functional; settings: read-out: GI
[27] = system: U-251; experiment: Growth inhibition of human U251 cells at 10 uM after 48 hrs by SRB assay relative to control; type: functional; settings: U-251, 48 h, read-out: GI
[28] = system: SK-MEL-2; experiment: Growth inhibition of human SK-MEL-2 cells at 10 uM after 48 hrs by SRB assay relative to control; type: functional; settings: SK-MEL-2, 48 h, read-out: GI
[29] = Growth inhibition of human LOXIMVI cells at 10 uM after 48 hrs by SRB assay relative to control; type: functional; settings: LOX IMVI, read-out: GI
[30] = system: A549; experiment: Growth inhibition of human A549 cells at 10 uM after 48 hrs by SRB assay relative to control; type: functional; settings: A549, 48 h, read-out: GI
[31] = Growth inhibition of human HOP62 cells at 10 uM after 48 hrs by SRB assay relative to control; type: functional; settings: HOP-62, 48 h, read-out: GI
[32] = Growth inhibition of human SF295 cells at 10 uM after 48 hrs by SRB assay relative to control; type: functional; settings: SF-295, 48 h, read-out: GI
[33] = Growth inhibition of human SW620 cells at 10 uM after 48 hrs by SRB assay relative to control; type: functional; settings: SW-620, 48 h, read-out: GI
[34] = Growth inhibition of human IGROV1 cells at 10 uM after 48 hrs by SRB assay relative to control; type: functional; settings: IGROV-1, 48 h, read-out: GI
[35] = system: MDA-MB-468; experiment: Growth inhibition of human MDA-MB-468 cells at 10 uM after 48 hrs by SRB assay relative to control; type: functional; settings: MDA-MB-468, 48 h, read-out: GI
[36] = Growth inhibition of human HCC2998 cells at 10 uM after 48 hrs by SRB assay relative to control; type: functional; settings: HCC 2998, 48 h, read-out: GI
[37] = system: SN12C; experiment: Growth inhibition of human SN12C cells at 10 uM after 48 hrs by SRB assay relative to control; type: functional; settings: read-out: GI
[38] = Growth inhibition of human NCI-ADR-RES cells at 10 uM after 48 hrs by SRB assay relative to control; type: functional; settings: read-out: GI
[39] = system: M14; experiment: Growth inhibition of human M14 cells at 10 uM after 48 hrs by SRB assay relative to control; type: functional; settings: M14, 48 h, read-out: GI

SMILES	inhibition of growth at 10 µM [1] [%]	inhibition of growth at 10 µM [2] [%]	inhibition of growth at 10 µM [3] [%]	inhibition of growth at 10 µM [4] [%]	inhibition of growth at 10 µM [5] [%]	inhibition of growth at 10 µM [6] [%]	inhibition of growth at 10 µM [7] [%]	inhibition of growth at 10 µM [8] [%]	inhibition of growth at 10 µM [9] [%]	inhibition of growth at 10 µM [10] [%]	inhibition of growth at 10 µM [11] [%]	inhibition of growth at 10 µM [12] [%]	inhibition of growth at 10 µM [13] [%]	inhibition of growth at 10 µM [14] [%]	inhibition of growth at 10 µM [15] [%]	inhibition of growth at 10 µM [16] [%]	inhibition of growth at 10 µM [17] [%]	inhibition of growth at 10 µM [18] [%]	inhibition of growth at 10 µM [19] [%]	inhibition [20] [%]	also measured
O=C(c1ccc(Cl)cc1Cl)N1c2ccccc2Sc2ccccc21	27	32	57	35	31	50	15	45	43	35	31	70	4	36	64	48	49	74	56	44	inhibition of growth at 10 µM [21]: 43%; inhibition of growth at 10 µM [22]: 26%; inhibition of growth at 10 µM [23]: 50%; inhibition of growth at 10 µM [24]: 55%; inhibition of growth at 10 µM [25]: 77%; inhibition of growth at 10 µM [26]: 24%; inhibition of growth at 10 µM [27]: 67%; inhibition of growth at 10 µM [28]: 21%; inhibition of growth at 10 µM [29]: 76%; inhibition of growth at 10 µM [30]: 46%; inhibition of growth at 10 µM [31]: 35%; inhibition of growth at 10 µM [32]: 47%; inhibition of growth at 10 µM [33]: 62%; inhibition of growth at 10 µM [34]: 39%; inhibition of growth at 10 µM [35]: 49%; inhibition of growth at 10 µM [36]: 35%; inhibition of growth at 10 µM [37]: 33%; inhibition of growth at 10 µM [38]: 39%; inhibition of growth at 10 µM [39]: 40%
O=C(c1ccc(F)c(Cl)c1)N1c2ccccc2Sc2ccccc21	15	23	74	27	39	60	0	47	42	38	11	73	21	39	69	49	10	56	60	42	inhibition of growth at 10 µM [21]: 23%; inhibition of growth at 10 µM [22]: 21%; inhibition of growth at 10 µM [23]: 33%; inhibition of growth at 10 µM [24]: 55%; inhibition of growth at 10 µM [25]: 69%; inhibition of growth at 10 µM [26]: 26%; inhibition of growth at 10 µM [27]: 61%; inhibition of growth at 10 µM [28]: 35%; inhibition of growth at 10 µM [29]: 59%; inhibition of growth at 10 µM [30]: 34%; inhibition of growth at 10 µM [31]: 23%; inhibition of growth at 10 µM [32]: 36%; inhibition of growth at 10 µM [33]: 66%; inhibition of growth at 10 µM [34]: 29%; inhibition of growth at 10 µM [35]: 37%; inhibition of growth at 10 µM [36]: 38%; inhibition of growth at 10 µM [37]: 1%; inhibition of growth at 10 µM [38]: 60%; inhibition of growth at 10 µM [39]: 47%
COc1ccc(C(=O)N2c3ccccc3Sc3ccccc32)c(OC)c1	44	69	86	52	62	86	38	84	83	42	63	81	85	23	99	80	72	88	89	53	inhibition of growth at 10 µM [21]: 68%; inhibition of growth at 10 µM [22]: 62%; inhibition of growth at 10 µM [23]: 63%; inhibition of growth at 10 µM [24]: 100%; inhibition of growth at 10 µM [25]: 91%; inhibition of growth at 10 µM [26]: 66%; inhibition of growth at 10 µM [27]: 75%; inhibition of growth at 10 µM [28]: 62%; inhibition of growth at 10 µM [29]: 62%; inhibition of growth at 10 µM [30]: 69%; inhibition of growth at 10 µM [31]: 52%; inhibition of growth at 10 µM [32]: 88%; inhibition of growth at 10 µM [33]: 75%; inhibition of growth at 10 µM [34]: 47%; inhibition of growth at 10 µM [35]: 100%; inhibition of growth at 10 µM [36]: 87%; inhibition of growth at 10 µM [37]: 48%; inhibition of growth at 10 µM [38]: 100%; inhibition of growth at 10 µM [39]: 100%
